Test results taken from patent publication EP1156056A1, “5-GLYCOSYLOXY-6-HYDROXYNAPHTHO 2,3-f]QUINOLINE-7,12-DIONE HAVING ANTICANCER ACTIVITIES” (ZAIDAN HOJIN BISEIBUTSU KAGAKU KENKYU KAI, priority 1999, dated 2000).

System: all human cancer cells as tested
Experiment: Inhibition of proliferation of cancer cells in culture, all human cancer cells as tested
Assay type: cell-based
Experimental: A culture medium for cancer cells was put into test tubes. To the culture medium in each tube, there was transplanted each of such various mouse cancer cells or human cancer cells as shown in Table 1 below. The cells so transplanted were cultivated under the conditions at 37°C in an air atmosphere containing 5 % CO2. To the medium containing the cancer cells so cultivated, there was added said Compounds A, B, D, E or F of this invention at different concentrations, as the test compound. […] As the comparative compound, adriamycin now clinically used was tested to repeat the test in the same way.
Namely, they are mouse colon cancer (colon 26), mouse B-cell lymphoma (LB32T), mouse lymphoma (L-1210), human cervical cancer (HeLa), human acute promyeloleukemia (HL60), human prostatic cancer (PC3), human pudendal squamous cell carcinoma (A431), human pulmonary carcinoma (PC6), human mastocarcinoma (MCF7), human esophageal carcinoma (TT), human prostatic cancer (LNcap) and human colon cancer (DLD-1). […]

IC50: < 100 µg/mL
SMILES: COc1c2c(c3cccnc3c1O[C@@H]1O[C@@H](C)[C@@H](O)[C@@H](O)[C@H]1F)C(=O)c1ccccc1C2=O [5-(2,6-dideoxy-2-fluoro-α-L-talopyranosyloxy)-6-methoxy-naphtho[2,3-f]-quinoline-7,12-dione]
anticancer activity: does not exhibit any appreciable anticancer activity
